Reference: patent US12516058B2, “Small-molecule compounds for controlling endosomal toll-like receptors and therapeutic agent for autoimmune diseases using same” (priority 2020, dated 2026)

Target: T1, TLR8 (Homo sapiens, UniProt Q9NR97)
T1 construct: endogenous in cells; host or cells: THP-1 (PMA-differentiated)
T1 sequence (Q9NR97 27-1041): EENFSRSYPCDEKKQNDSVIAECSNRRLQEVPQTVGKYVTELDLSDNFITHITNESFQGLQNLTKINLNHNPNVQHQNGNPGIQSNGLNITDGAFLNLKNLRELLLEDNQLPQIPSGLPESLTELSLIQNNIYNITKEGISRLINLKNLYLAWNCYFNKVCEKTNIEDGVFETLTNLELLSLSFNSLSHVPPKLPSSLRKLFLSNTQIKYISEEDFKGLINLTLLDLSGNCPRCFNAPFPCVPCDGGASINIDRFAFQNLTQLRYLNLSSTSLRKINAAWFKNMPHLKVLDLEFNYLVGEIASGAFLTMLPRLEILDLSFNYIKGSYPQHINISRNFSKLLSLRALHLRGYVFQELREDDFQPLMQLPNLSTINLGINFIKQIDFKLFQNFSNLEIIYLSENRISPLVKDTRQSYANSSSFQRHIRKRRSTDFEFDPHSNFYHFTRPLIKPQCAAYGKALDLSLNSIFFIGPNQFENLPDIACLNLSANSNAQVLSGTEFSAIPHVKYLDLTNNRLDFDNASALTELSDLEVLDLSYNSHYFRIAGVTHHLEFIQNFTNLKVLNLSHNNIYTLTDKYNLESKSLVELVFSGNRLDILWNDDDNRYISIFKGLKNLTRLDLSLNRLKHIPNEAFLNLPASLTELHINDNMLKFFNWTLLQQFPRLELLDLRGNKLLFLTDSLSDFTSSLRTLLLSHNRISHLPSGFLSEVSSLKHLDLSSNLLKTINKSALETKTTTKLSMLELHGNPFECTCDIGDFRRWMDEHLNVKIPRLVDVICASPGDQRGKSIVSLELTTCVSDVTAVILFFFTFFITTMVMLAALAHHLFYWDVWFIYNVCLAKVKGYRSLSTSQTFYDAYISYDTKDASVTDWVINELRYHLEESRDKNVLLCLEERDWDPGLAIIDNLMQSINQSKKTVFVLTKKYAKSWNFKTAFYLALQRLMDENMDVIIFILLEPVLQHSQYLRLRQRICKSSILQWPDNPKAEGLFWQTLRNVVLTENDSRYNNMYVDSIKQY
Assay: TNF-α secretion ELISA after TLR8 agonist TL8-506 in PMA-differentiated THP-1 cells
Format: cell-based
Settings: SK01, TL8-506 4 h
Description: FIGS. 5A to 5C show the inhibitory activities of SK01 on TLRs (TLR1/2, TLR2/6 and TLR4) exposed to the cell surface, and FIGS. 5D to 5G show the inhibitory activities of SK01 against endosome TLRs (TLR3, TLR7, TLR8 and TLR9), wherein RAW 264.7 cells were treated at predetermined concentrations with a negative control, a positive control (only ligand), additional positive control (ligand and 0.25% DMSO), or SK01 for 1 hour, and then stimulated with TLR-specific agonists for 4 or 24 hours (TLR3 only), a human monocytic cell line (THP-1) was used for TLR8 and THP-1 cells were treated with phorbol 12-myristate 13-acetate for 48 hours to induce cell differentiation, then treated with SK01 for 1 hour, and was treated with the TLR8 agonist TL8-506 for 4 hours, and the level of TNF-α secretion was measured by ELISA.

## Cc1c(C)n(CCN(C)C)c2nc3c(c(N)c12)CCCCC3 [SK01, 1-(2-(dimethylamino)ethyl)-2,3-dimethyl-1,5,6,7,8,9-hexahydrocyclohepta[b]pyrrolo[3,2-e]pyridin-4-amine]
  activity against TLR8: no activity
